Reference: ChEMBL document CHEMBL1158580, “Novel 1,3,5-triphenyl-2-pyrazolines as anti-infective agents” (2010)
Converted amounts (≈) assume the structure as drawn.

Tests used:
Fusarium proliferatum = assay: Antifungal activity against Fusarium proliferatum NCIM 1105 assessed as fungal growth inhibition at 2 mg/ml by microdilution method; assay type: functional
Bacillus subtilis = assay: Antibacterial activity against Bacillus subtilis NCIM 2718 by microdilution method; assay type: functional
[1] = tested on: Mycobacterium tuberculosis; assay: Antimycobacterial activity against Mycobacterium tuberculosis H37Rv assessed as reduction in relative light units at 100 ug/ml after 72 hrs by luciferase reporter phage assay; assay type: functional; parameters: scale not given: the % may be the effect or the level left
Aspergillus niger = assay: Antifungal activity against Aspergillus niger NCIM 596 assessed as fungal growth inhibition at 2 mg/ml by microdilution method; assay type: functional
Staphylococcus aureus = assay: Antibacterial activity against Staphylococcus aureus NCIM 5021 by microdilution method; assay type: functional
Proteus vulgaris = assay: Antibacterial activity against Proteus vulgaris NCIM 2813 by microdilution method; assay type: functional
Salmonella enterica = assay: Antibacterial activity against Salmonella typhi NCIM 2501 by microdilution method; assay type: functional, Salmonella enterica subsp. enterica serovar Typhi
[2] = tested on: Mycobacterium tuberculosis; assay: Antimycobacterial activity against Mycobacterium tuberculosis H37Rv assessed as reduction in relative light units at 50 ug/ml after 72 hrs by luciferase reporter phage assay; assay type: functional; parameters: scale not given: the % may be the effect or the level left
Escherichia coli = assay: Antibacterial activity against Escherichia coli NCIM 2931 by microdilution method; assay type: functional
Candida tropicalis = assay: Antifungal activity against Candida tropicalis NCIM 3556 assessed as fungal growth inhibition at 2 mg/ml by microdilution method; assay type: functional
Aspergillus flavus = assay: Antifungal activity against Aspergillus flavus NCIM 594 assessed as fungal growth inhibition at 2 mg/ml by microdilution method; assay type: functional
Klebsiella aerogenes = assay: Antibacterial activity against Enterobacter aerogenes NCIM 5139 by microdilution method; assay type: functional

Row | SMILES | inhibition at 2000 µg/mL (Fusarium proliferatum) [%] | MIC (Bacillus subtilis) [µM] | Activity [1] [%] | inhibition at 2000 µg/mL (Aspergillus niger) [%] | MIC (Staphylococcus aureus) [µM] | MIC (Proteus vulgaris) [µM] | MIC (Salmonella enterica) [µM] | Activity [2] [%] | MIC (Escherichia coli) [µM] | inhibition at 2000 µg/mL (Candida tropicalis) [%] | inhibition at 2000 µg/mL (Aspergillus flavus) [%] | MIC (Klebsiella aerogenes) [µM]
1 | CCOc1ccc(C2=NN(c3ccccc3)C(c3ccc(SC)cc3)C2)cc1 (configuration not stated) | 94.3 | 322 (≈ 125 µg/mL) | 48.35 | 85.3 | 643 (≈ 250 µg/mL) | 322 (≈ 125 µg/mL) | 0.322 (≈ 0.125 µg/mL) | 36.44 | 161 (≈ 62.6 µg/mL) | 95.4 | 38.2 | 322 (≈ 125 µg/mL)
2 | CSc1ccc(C2CC(c3ccccc3)=NN2c2ccccc2)cc1 (configuration not stated) | 94.1 | 363 (≈ 125 µg/mL) | 17.65 | 93.5 | 726 (≈ 250 µg/mL) | 726 (≈ 250 µg/mL) | 0.726 (≈ 0.25 µg/mL) | 0 | 45 (≈ 15.5 µg/mL) | 73.1 | 30.5 | 363 (≈ 125 µg/mL)
3 | COc1ccc(C2=NN(c3ccccc3)C(c3ccc(SC)cc3)C2)cc1OC (configuration not stated) | 93.2 | 309 (≈ 125 µg/mL) | 30.3 | 9.65 | 618 (≈ 250 µg/mL) | 309 (≈ 125 µg/mL) | 0.309 (≈ 0.125 µg/mL) | 32.66 | 155 (≈ 62.7 µg/mL) | 9.12 | 63.8 | 155 (≈ 62.7 µg/mL)
4 | CSc1ccc(C2CC(c3ccc(F)cc3)=NN2c2ccccc2)cc1 (configuration not stated) | 98.7 | 172 (≈ 62.3 µg/mL) | 4.75 | 97.3 | 690 (≈ 250 µg/mL) | 345 (≈ 125 µg/mL) | 0.69 (≈ 0.25 µg/mL) | 0 | 22 (≈ 7.97 µg/mL) | 97.4 | 94.8 | 345 (≈ 125 µg/mL)
5 | CSc1ccc(C2CC(c3ccc(Cl)cc3)=NN2c2ccccc2)cc1 (configuration not stated) | 72.9 | 330 (≈ 125 µg/mL) | 17.43 | 93 | 660 (≈ 250 µg/mL) | 660 (≈ 250 µg/mL) | 0.33 (≈ 0.125 µg/mL) | 0 | 82 (≈ 31.1 µg/mL) | 94.4 | 13.1 | 330 (≈ 125 µg/mL)
6 | CSc1ccc(C2CC(c3cccc4c3OCO4)=NN2c2ccccc2)cc1 (configuration not stated) | 81.3 | 322 (≈ 125 µg/mL) | 27.81 | 71.4 | 644 (≈ 250 µg/mL) | 322 (≈ 125 µg/mL) | 0.322 (≈ 0.125 µg/mL) | 10.59 | 80 (≈ 31.1 µg/mL) | 17.1 | 31.2 | 322 (≈ 125 µg/mL)
7 | CSc1ccc(C2CC(c3ccc(Br)cc3)=NN2c2ccccc2)cc1 (configuration not stated) | 34.3 | 295 (≈ 125 µg/mL) | 18.55 | 88.5 | 591 (≈ 250 µg/mL) | 295 (≈ 125 µg/mL) | 0.295 (≈ 0.125 µg/mL) | 0 | 148 (≈ 62.7 µg/mL) | 88.1 | 28.2 | 295 (≈ 125 µg/mL)
8 | CS(=O)(=O)c1ccc(C2CC(c3ccc(Cl)cc3)=NN2c2ccccc2)cc1 (configuration not stated) | 88.3 | 304 (≈ 125 µg/mL) | 15.46 | 97.5 | 608 (≈ 250 µg/mL) | 304 (≈ 125 µg/mL) | 0.304 (≈ 0.125 µg/mL) | 0.76 | 152 (≈ 62.5 µg/mL) | 95.6 | 88.4 | 304 (≈ 125 µg/mL)
9 | CSc1ccc(C2CC(c3cccc(Br)c3)=NN2c2ccccc2)cc1 (configuration not stated) | 90.1 | 295 (≈ 125 µg/mL) | 20.17 | 64.6 | 591 (≈ 250 µg/mL) | 295 (≈ 125 µg/mL) | 0.295 (≈ 0.125 µg/mL) | 8.55 | 295 (≈ 125 µg/mL) | 65.1 | 91.4 | 295 (≈ 125 µg/mL)
10 | COc1cccc(C2=NN(c3ccccc3)C(c3ccc(SC)cc3)C2)c1 (configuration not stated) | 96.1 | 334 (≈ 125 µg/mL) | 26.85 | 90.1 | 668 (≈ 250 µg/mL) | 334 (≈ 125 µg/mL) | 0.334 (≈ 0.125 µg/mL) | 7.45 | 167 (≈ 62.5 µg/mL) | 98.7 | 51.5 | 334 (≈ 125 µg/mL)
11 | CSc1ccc(C2CC(c3ccc(C)cc3)=NN2c2ccccc2)cc1 (configuration not stated) | 83.8 | 349 (≈ 125 µg/mL) | 19.26 | 93 | 697 (≈ 250 µg/mL) | 349 (≈ 125 µg/mL) | 0.349 (≈ 0.125 µg/mL) | 0 | 174 (≈ 62.4 µg/mL) | 95.3 | 38.6 | 349 (≈ 125 µg/mL)
12 | CSc1ccc(C2CC(c3cccc([N+](=O)[O-])c3)=NN2c2ccccc2)cc1 (configuration not stated) | 56.9 | 321 (≈ 125 µg/mL) | 5.7 | 65.2 | 642 (≈ 250 µg/mL) | 321 (≈ 125 µg/mL) | 0.321 (≈ 0.125 µg/mL) | 0 | 160 (≈ 62.3 µg/mL) | 45.9 | 19 | 321 (≈ 125 µg/mL)
13 | CS(=O)(=O)c1ccc(C2CC(c3ccccc3)=NN2c2ccccc2)cc1 (configuration not stated) | 97.6 | 332 (≈ 125 µg/mL) | 50.71 | 47.2 | 664 (≈ 250 µg/mL) | 332 (≈ 125 µg/mL) | 0.332 (≈ 0.125 µg/mL) | 1.7 | 166 (≈ 62.5 µg/mL) | 30.6 | 65.8 | 332 (≈ 125 µg/mL)
14 | CSc1ccc(C2CC(c3ccccc3Cl)=NN2c2ccccc2)cc1 (configuration not stated) | 93.6 | 330 (≈ 125 µg/mL) | 0 | 98.3 | 330 (≈ 125 µg/mL) | 330 (≈ 125 µg/mL) | 0.33 (≈ 0.125 µg/mL) | 0 | 165 (≈ 62.5 µg/mL) | 91 | 88.2 | 165 (≈ 62.5 µg/mL)
15 | COc1ccc(C2=NN(c3ccccc3)C(c3ccc(SC)cc3)C2)cc1 (configuration not stated) | 65.9 | 334 (≈ 125 µg/mL) | 24.87 | 81.1 | 668 (≈ 250 µg/mL) | 334 (≈ 125 µg/mL) | 0.334 (≈ 0.125 µg/mL) | 0 | 83 (≈ 31.1 µg/mL) | 92.9 | 48.4 | 334 (≈ 125 µg/mL)
16 | CSc1ccc(C2CC(c3cccc(N)c3)=NN2c2ccccc2)cc1 (configuration not stated) | 93.6 | 347 (≈ 125 µg/mL) | 13.79 | 84.4 | 694 (≈ 249 µg/mL) | 347 (≈ 125 µg/mL) | 0.347 (≈ 0.125 µg/mL) | 0 | 173 (≈ 62.2 µg/mL) | 86.1 | 25 | 347 (≈ 125 µg/mL)
